This is an account of results in article PMC3723234 (Pain, 2012).

For orientation: IC50 means the concentration needed to halve the response being measured. A high value points to weaker potency. Usually Vmax stands for the rate approached at saturating substrate.

Data set [1] concerns the target T1, N-acylethanolamine acid amidase (NAAA) (Rattus norvegicus, UniProt Q5KTC7).
T1 sequence (Q5KTC7 34-130): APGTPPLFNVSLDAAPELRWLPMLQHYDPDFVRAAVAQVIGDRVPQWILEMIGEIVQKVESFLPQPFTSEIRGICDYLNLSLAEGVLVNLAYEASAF
T1 sequence (Q5KTC7 131-362): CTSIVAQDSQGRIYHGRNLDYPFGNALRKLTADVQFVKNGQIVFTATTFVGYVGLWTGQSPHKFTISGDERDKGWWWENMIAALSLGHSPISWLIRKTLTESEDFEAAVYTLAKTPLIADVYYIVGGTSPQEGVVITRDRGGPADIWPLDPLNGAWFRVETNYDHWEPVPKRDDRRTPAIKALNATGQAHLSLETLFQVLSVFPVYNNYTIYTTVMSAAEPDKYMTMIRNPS
Description: LC/MS enzyme activity assay in HEK-rNAAA cell preparations. Format: biochemical.

Substrate in data set [2]: CCCCCC/C=C\CCCCCCCCC(=O)NCCO
Put plainly: Michaelis-Menten analysis by LC/MS of heptadecenoic acid formation. It counts as biochemical, Rattus norvegicus.

The molecule `C[C@@H]1OC(=O)[C@@H]1NC(=O)OCCCCCc1ccccc1` [ARN077, 5-phenylpentyl N-[(2S,3R)-2-methyl-4-oxo-oxetan-3-yl] carbamate] had an IC50 in data set [1] of 11 nM. That is a double-digit nanomolar value.

B1: N-acylethanolamine acid amidase (NAAA) (Rattus norvegicus) (protein)
chain 1: APGTPPLFNVSLDAAPELRWLPMLQHYDPDFVRAAVAQVIGDRVPQWILEMIGEIVQKVESFLPQPFTSEIRGICDYLNLSLAEGVLVNLAYEASAF
chain 2: CTSIVAQDSQGRIYHGRNLDYPFGNALRKLTADVQFVKNGQIVFTATTFVGYVGLWTGQSPHKFTISGDERDKGWWWENMIAALSLGHSPISWLIRKTLTESEDFEAAVYTLAKTPLIADVYYIVGGTSPQEGVVITRDRGGPADIWPLDPLNGAWFRVETNYDHWEPVPKRDDRRTPAIKALNATGQAHLSLETLFQVLSVFPVYNNYTIYTTVMSAAEPDKYMTMIRNPS
Consider B1, for which the Vmax in data set [2] came to 0.0154 µmol/min/mg.
